Results published in ChEMBL document CHEMBL5523735 (J Med Chem, 2024).
≈ marks a conversion by molar mass, not a printed value. Calls of active or inactive are those of the source. No cut-off for these calls is given here.

Columns and labels:
P2Y purinoceptor 14 = target: T1, P2Y purinoceptor 14 (Homo sapiens, UniProt Q15391); assay: Antagonist activity at P2Y14R (unknown origin) stably expressed in HEK293 cells assessed as inhibition of forskolin-induced cAMP production by cAMP-Glo assay; type: functional, cell-based
T1 sequence (Q15391 whole entry): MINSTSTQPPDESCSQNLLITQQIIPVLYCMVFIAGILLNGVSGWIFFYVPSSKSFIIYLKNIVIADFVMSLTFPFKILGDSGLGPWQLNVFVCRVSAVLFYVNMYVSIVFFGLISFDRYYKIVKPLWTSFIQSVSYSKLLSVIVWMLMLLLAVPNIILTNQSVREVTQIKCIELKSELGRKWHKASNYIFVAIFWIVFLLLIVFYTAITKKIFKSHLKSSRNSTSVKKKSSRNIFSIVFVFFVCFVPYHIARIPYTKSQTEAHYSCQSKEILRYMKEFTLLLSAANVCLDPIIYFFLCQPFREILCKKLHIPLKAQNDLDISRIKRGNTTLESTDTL

[1] = target: T2, P2Y purinoceptor 14 (Homo sapiens) (UniProt Q15391); details: HEK293, filed as antagonist, dose 100.0 nM
T2 sequence (whole entry): T1 sequence (Q15391 whole entry)
Description: Antagonist activity at P2Y14R (unknown origin) stably expressed in HEK293 cells assessed as inhibition of forskolin-induced cAMP production at 100 nM by cAMP-Glo assay relative to control

[2] = Aqueous solubility of compound in SIF at pH 6.8 by spectrometry; type: ADME; details: simulated gi fluid
[3] = Aqueous solubility of compound in PBS at pH 7.4 by spectrometry; type: physicochemical; details: buffer
[4] = Aqueous solubility of compound in double distilled water at pH 7 by spectrometry; type: physicochemical; details: buffer
[5] = Aqueous solubility of compound in SGF at pH 1.2 by spectrometry; type: ADME
P2Y purinoceptor 12 = P2Y purinoceptor 12 (Homo sapiens, UniProt Q9H244); assay: Inhibition of P2Y12R (unknown origin) expressed in HEK293 cells assessed as restoration of cAMP reduction; type: functional, cell-based
P2Y purinoceptor 12, sequence (Q9H244 whole entry): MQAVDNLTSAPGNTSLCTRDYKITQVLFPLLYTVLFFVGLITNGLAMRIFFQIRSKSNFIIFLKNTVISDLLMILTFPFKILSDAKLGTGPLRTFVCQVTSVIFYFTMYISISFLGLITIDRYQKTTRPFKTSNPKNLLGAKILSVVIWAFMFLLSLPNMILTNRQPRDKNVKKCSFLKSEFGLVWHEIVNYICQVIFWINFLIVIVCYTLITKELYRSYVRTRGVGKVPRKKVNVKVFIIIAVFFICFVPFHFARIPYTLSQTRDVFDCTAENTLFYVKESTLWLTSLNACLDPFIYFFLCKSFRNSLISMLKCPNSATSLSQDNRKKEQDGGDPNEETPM

P2Y purinoceptor 6 = P2Y purinoceptor 6 (Homo sapiens, UniProt Q15077); assay: Inhibition of P2Y6R (unknown origin) expressed in HEK293 cells assessed as decrease in IP3 reduction
P2Y purinoceptor 6, sequence (Q15077 whole entry): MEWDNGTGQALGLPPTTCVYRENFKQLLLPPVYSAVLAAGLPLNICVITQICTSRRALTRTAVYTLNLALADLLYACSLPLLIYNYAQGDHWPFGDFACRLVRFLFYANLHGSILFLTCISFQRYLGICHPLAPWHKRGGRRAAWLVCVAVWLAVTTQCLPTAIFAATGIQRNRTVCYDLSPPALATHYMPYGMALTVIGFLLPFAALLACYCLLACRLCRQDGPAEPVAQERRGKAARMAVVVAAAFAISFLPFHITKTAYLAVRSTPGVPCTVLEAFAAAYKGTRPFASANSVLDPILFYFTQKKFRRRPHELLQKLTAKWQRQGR

Mus musculus [6] = assay: Anti-colitis activity in C57BL/6 mouse model of DSS-induced colitis assessed as decrease in histological damage in colon at 100 uM, REC for 7 days administered daily by H and E staining based analysis; type: functional, organism-based; details: time 7.0 day
[7] = Half life in Sprague-Dawley rat at 5 mg/kg, po; type: ADME, organism-based; details: in vivo
[8] = Metabolic stability in human liver microsomes measured for 90 mins; type: ADME, Microsome; details: 1.5 h
[9] = Half life in Sprague-Dawley rat at 1 mg/kg, iv; type: ADME, organism-based; details: in vivo
Mus musculus [10] = assay: Anti-colitis activity in C57BL/6 mouse model of DSS-induced colitis assessed as decrease in loose stools at 100 uM, REC for 7 days administered daily; type: functional, organism-based; details: time 7.0 day
Mus musculus [11] = assay: Anti-colitis activity in C57BL/6 mouse model of DSS-induced colitis assessed as increase in colon length at 100 uM, REC for 7 days administered daily; type: functional, organism-based; details: time 7.0 day
[12] = Oral bioavailability in Sprague-Dawley rat at 5 mg/kg; type: ADME, organism-based; details: in vivo
[13] = Cmax in Sprague-Dawley rat at 5 mg/kg, po; type: ADME, organism-based; details: in vivo
Mus musculus [14] = assay: Anti-colitis activity in C57BL/6 mouse model of DSS-induced colitis assessed as decrease in rectal bleeding at 100 uM, REC for 7 days administered daily; type: functional, organism-based; details: time 7.0 day
Mus musculus [15] = assay: Anti-colitis activity in C57BL/6 mouse model of DSS-induced colitis assessed as decrease in endoscopic damage in colon at 100 uM, REC for 7 days administered daily; type: functional, organism-based; details: time 7.0 day
[16] = AUC (all) in Sprague-Dawley rat at 1 mg/kg, iv; type: ADME, organism-based; details: in vivo
[17] = AUC (all) in Sprague-Dawley rat at 5 mg/kg, po; type: ADME, organism-based; details: in vivo
Mus musculus [18] = assay: Anti-colitis activity in C57BL/6 mouse model of DSS-induced colitis assessed as increase in intestinal epithelial cells in colon at 100 uM, REC for 7 days administered daily by H and E staining based analysis by immunofluorescence based analysis; type: functional, organism-based; details: time 7.0 day
Mus musculus [19] = assay: Anti-colitis activity in C57BL/6 mouse model of DSS-induced colitis assessed as increase in body weight at 100 uM, REC for 7 days administered daily; type: functional, organism-based; details: time 7.0 day
Mus musculus [20] = assay: Anti-colitis activity in C57BL/6 mouse model of DSS-induced colitis assessed as decrease in spleen weight index at 100 uM, REC for 7 days administered daily; type: functional, organism-based; details: time 7.0 day
[21] = Tmax in Sprague-Dawley rat at 5 mg/kg, po; type: ADME, organism-based; details: in vivo
P2Y purinoceptor 4 = P2Y purinoceptor 4 (Homo sapiens, UniProt P51582); assay: Inhibition of P2Y4R (unknown origin) expressed in HEK293 cells assessed as decrease in IP3 production; type: functional, cell-based
P2Y purinoceptor 4, sequence (P51582 whole entry): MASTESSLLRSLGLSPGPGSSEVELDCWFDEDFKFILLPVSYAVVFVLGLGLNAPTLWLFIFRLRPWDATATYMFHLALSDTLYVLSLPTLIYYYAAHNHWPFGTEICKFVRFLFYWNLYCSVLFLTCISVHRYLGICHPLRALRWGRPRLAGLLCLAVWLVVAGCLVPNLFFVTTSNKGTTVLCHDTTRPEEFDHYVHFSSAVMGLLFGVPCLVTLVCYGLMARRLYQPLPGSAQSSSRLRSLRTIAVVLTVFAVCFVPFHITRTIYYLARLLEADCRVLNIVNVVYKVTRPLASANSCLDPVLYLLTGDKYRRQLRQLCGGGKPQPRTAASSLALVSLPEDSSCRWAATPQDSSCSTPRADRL

Row | Structure (SMILES) | IC50 (P2Y purinoceptor 14) | inhibition [1] | solubility [2] | solubility [3] | solubility [4] | further results
1 | COc1ccc(Oc2sc(C(=O)O)cc2NC(=O)c2ccc(C)cc2)cc1 | 24500 nM | 69.8% | – | – | – | –
2 | Cc1ccc(C(=O)Nc2cc(C(=O)O)sc2Oc2ccc(F)nc2)cc1 | 17.6 nM | 83.4% | 1.202 µg/mL (≈ 3.23 µM) | 3.253 µg/mL (≈ 8.74 µM) | 0.041 µg/mL (≈ 0.11 µM) | solubility ([5]; SGF, read-out: solubility): 0.036 µg/mL (≈ 0.0967 µM)
3 | CCCc1ccc(Oc2sc(C(=O)O)cc2NC(=O)c2ccc(C)cc2)cc1 | 124 nM | 66.3% | – | – | – | –
4 | CCCSc1nc(N[C@@H]2C[C@H]2c2ccc(F)c(F)c2)c2nnn([C@@H]3C[C@H](OCCO)[C@@H](O)[C@H]3O)c2n1 [TICAGRELOR] | – | – | – | – | – | IC50 (P2Y purinoceptor 12): 1280 nM
5 | Cc1ccc(Oc2sc(C(=O)O)cc2NC(=O)c2ccc(C)cc2)cc1 | 4.01 nM | 97.4% | – | – | – | –
6 | Cc1ccc(Oc2sc(C(=O)O)cc2NC(=O)c2ccccc2)cn1 | 13 nM | 81.9% | – | – | – | –
7 | Cc1ccc(Oc2sc(C(=O)O)cc2NC(=O)c2cnc(C)nc2)cn1 | 3130 nM | 83.9% | – | – | – | –
8 | Cc1ccc(C(=O)Nc2cc(C(=O)O)sc2Oc2ccc(C)cn2)cc1 | 0.55 nM | 90.6% | 0.109 µg/mL (≈ 0.296 µM) | 1.7 µg/mL (≈ 4.61 µM) | 0.039 µg/mL (≈ 0.106 µM) | solubility ([5]; SGF, read-out: solubility): 0.03 µg/mL (≈ 0.0814 µM)
9 | Cc1ccc(Sc2sc(C(=O)O)cc2NC(=O)c2ccc(C)cc2)cc1 | 6.53 nM | 88.4% | – | – | – | –
10 | Cc1ccc(C(=O)Nc2cc(C(=O)O)sc2Oc2cccc(F)c2)cc1 | 87.7 nM | 69.6% | – | – | – | –
11 | Cc1ccc(C(=O)Nc2cc(C(=O)O)sc2Oc2ccccn2)cc1 | 1690 nM | 74.9% | – | – | – | –
12 | Cc1ccc(C(=O)Nc2cc(C(=O)O)sc2Oc2ccccc2F)cc1 | 104 nM | 66% | – | – | – | –
13 | CCc1ccc(Oc2sc(C(=O)O)cc2NC(=O)c2ccc(C)cc2)cc1 | 81.3 nM | 67.4% | – | – | – | –
14 | Cc1ccc(C(=O)Nc2cc(C(=O)O)cc(-c3ccoc3)c2)cc1 | – | – | 0.471 µg/mL (≈ 1.47 µM) | 0.878 µg/mL (≈ 2.73 µM) | 0.078 µg/mL (≈ 0.243 µM) | solubility ([5]; simulated gi fluid): 0.069 µg/mL (≈ 0.215 µM)
15 | C#Cc1ccc(C(=O)Nc2cc(C(=O)O)sc2Oc2ccc(C)nc2)cc1 | 7.51 nM | 116% | – | – | – | –
16 | S=C=Nc1cccc(NC(=S)NCCCCNC(=S)Nc2cccc(N=C=S)c2)c1 | – | – | – | – | – | IC50 (P2Y purinoceptor 6): 23.4 nM
17 | Cc1ccc(C(=O)Nc2cc(C(=O)O)sc2Oc2ccc(F)cn2)cc1 | 0.4 nM | 130% | 0.175 µg/mL (≈ 0.47 µM) | 1.995 µg/mL (≈ 5.36 µM) | 0.088 µg/mL (≈ 0.236 µM) | Activity (Mus musculus [6]): Active; half-life [7]: 178 min; Stability [8]: Stable; half-life [9]: 21 min; Activity (Mus musculus [10]): Active; Activity (Mus musculus [11]): Active; bioavailability [12]: 65%; Cmax [13]: 518 ng/mL; Activity (Mus musculus [14]): Active; Activity (Mus musculus [15]): Active; AUC [16]: 27924 ng·min/mL; AUC [17]: 90744 ng·min/mL; Activity (Mus musculus [18]): Active; solubility ([5]; SGF, read-out: solubility): 0.051 µg/mL (≈ 0.137 µM); Activity (Mus musculus [19]): Active; Activity (Mus musculus [20]): Active; Tmax [21]: 15 min
18 | Cc1ccc(C(=O)Nc2cc(C(=O)O)sc2Oc2ccc(F)cc2)cc1 | 60.6 nM | 74.8% | – | – | – | –
19 | Cc1ccc(C(=O)Nc2cc(C(=O)O)sc2Oc2ccc(C)nc2)cc1 | 6.53 nM | 99.4% | 0.189 µg/mL (≈ 0.513 µM) | 2.37 µg/mL (≈ 6.43 µM) | 0.067 µg/mL (≈ 0.182 µM) | solubility ([5]; SGF, read-out: solubility): 0.844 µg/mL (≈ 2.29 µM)
20 | O=C(C1CC1)N1CCc2cc(Br)c(S(=O)(=O)Nc3ccc(C(F)(F)F)c(Cl)c3)cc21 | – | – | – | – | – | IC50 (P2Y purinoceptor 4): 13000 nM
21 | O=C(O)c1cc(-c2ccc(C3CCNCC3)cc2)c2ccc(-c3ccc(C(F)(F)F)cc3)cc2c1 [PPTN] | – | – | < 0.005 µg/mL | < 0.005 µg/mL | < 0.005 µg/mL | solubility ([5]; SGF, read-out: solubility): < 0.005 µg/mL
22 | COc1ccc(C(=O)Nc2cc(C(=O)O)sc2Oc2ccc(C)nc2)cc1 | 1.29 nM | 112% | 0.423 µg/mL (≈ 1.1 µM) | 2.33 µg/mL (≈ 6.06 µM) | 0.063 µg/mL (≈ 0.164 µM) | Stability [8]: Stable; solubility ([5]; SGF, read-out: solubility): 2.26 µg/mL (≈ 5.88 µM)
23 | Cc1ccc(C(=O)Nc2cc(C(=O)O)nn2Cc2ccc(F)cc2)cc1 | – | – | 0.203 µg/mL (≈ 0.574 µM) | 0.318 µg/mL (≈ 0.9 µM) | 0.088 µg/mL (≈ 0.249 µM) | solubility ([5]; simulated gi fluid): 0.085 µg/mL (≈ 0.241 µM)
24 | CC(=O)Nc1ccc(Oc2sc(C(=O)O)cc2NC(=O)c2ccc(C)cc2)cc1 | 18600 nM | 66% | – | – | – | –
